Measurements reported in patent US8461151B2, “Aryl-/heteroaryl-cyclohexenyl-tetraazabenzo[e]azulenes” (Hoffmann-La Roche Inc., priority 2010, dated 2013).
Where a name gives a salt, the structure may show the parent alone.

Target: T1, human V1a receptor (Homo sapiens, UniProt P37288)
T1 construct: expressed in transfected cells; host or cells: HEK293 cells, transiently transfected; membranes
Assay: human V1a receptor binding studies (3H-Vasopressin SPA, membranes of transfected HEK293 cells)
Settings: 3H-Vasopressin displacement, HEK293 cell membranes, SPA beads, 1 h at room temperature, Ki by Cheng-Prussoff from IC50, read-out: pKi (hV1a) (converted)
Description: The human V1a receptor was cloned by RT-PCR from total human liver RNA. The coding sequence was subcloned in an expression vector after sequencing to confirm the identity of the amplified sequence. […] Cell membranes were prepared from HEK293-cells transiently transfected with the expression vector and grown in 20 liter fermenters with the following protocol.
50 g of cells are resuspended in 30 ml freshly prepared ice cold Lysis buffer (50 mM HEPES, 1 mM EDTA, 10 mM magnesium dichloride adjusted to pH=7.4+ complete cocktail of protease inhibitor (Roche Diagnostics)). Homogenized with Polytron for 1 min and sonicated on ice for 2×2 minutes at 80% intensity (Vibracell sonicator). The preparation is centrifuged 20 min at 500 g at 4° C., the pellet is discarded and the supernatant centrifuged 1 hour at 43,000 g at 4° C. (19,000 rpm). The pellet is resuspended in 12.5 ml Lysis buffer+12.5 ml sucrose 20% and homogenized using a Polytron for 1-2 min. The protein concentration is determined by the Bradford method and aliquots are stored at −80° C. until use. For binding studies 60 mg Yttrium silicate SPA beads (Amersham®) are mixed with an aliquot of membrane in binding buffer (50 mM Tris, 120 mM sodium chloride, 5 mM potassium chloride, 2 mM calcium dichloride, 10 mM magnesium dichloride) for 15 minutes with mixing. 50 μl of bead/membrane mixture is then added to each well of a 96 well plate, followed by 50 μl of 4 nM 3H-Vasopressin (American Radiolabeled Chemicals). For total binding measurement 100 μl of binding buffer are added to the respective wells, for non-specific binding 100 μl of 8.4 mM cold vasopressin and for compound testing 100 μl of a serial dilution of each compound in 2% dimethyl sulfoxide. The plate is incubated 1 h at room temperature, centrifuged 1 min at 1000 g and counted on a Packard Top-Count. Non-specific binding counts are subtracted from each well and data is normalized to the maximum specific binding set at 100%. To calculate an IC50 the curve is fitted using a non-linear regression model (XLfit) and the Ki is calculated using the Cheng-Prussoff equation.

T1 sequence (P37288 whole entry): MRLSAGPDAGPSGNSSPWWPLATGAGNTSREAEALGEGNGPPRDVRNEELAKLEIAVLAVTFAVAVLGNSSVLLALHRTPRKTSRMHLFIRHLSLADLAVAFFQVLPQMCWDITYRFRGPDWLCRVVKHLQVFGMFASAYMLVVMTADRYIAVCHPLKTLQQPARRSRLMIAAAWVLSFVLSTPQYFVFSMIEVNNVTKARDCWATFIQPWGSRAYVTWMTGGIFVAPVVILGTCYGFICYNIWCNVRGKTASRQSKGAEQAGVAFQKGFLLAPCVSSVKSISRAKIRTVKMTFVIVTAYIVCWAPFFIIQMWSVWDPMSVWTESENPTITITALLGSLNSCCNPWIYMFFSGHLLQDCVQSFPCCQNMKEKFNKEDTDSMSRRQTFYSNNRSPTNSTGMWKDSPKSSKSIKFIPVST

Q: With `CN1Cc2cc(Cl)ccc2-n2c(nnc2C2CC=C(c3cccc(OC(F)(F)F)c3)CC2)C1` (racemic) [Example 10, (RS)-8-Chloro-5-methyl-1-[4-(3-trifluoromethoxy-phenyl)-cyclohex-3-enyl]-5,6-dihydro-4H-2,3,5,10b-tetraaza-benzo[e]azulene] as the compound, how does the Ki read?
A: Its Ki is 58.9 nM.

Q: For `CC(C)(C)OC(=O)N1Cc2cc(Cl)ccc2-n2c(nnc2C2CC=C(c3cccc(F)c3Cl)CC2)C1` (racemic) [Example 11, (RS)-8-Chloro-1-[4-(2-chloro-3-fluoro-phenyl)-cyclohex-3-enyl]-4H,6H-2,3,5,10b-tetraaza-benzo[e]azulene-5-carboxylic acid tert-butyl ester], which Ki is on record?
A: The Ki was 8.13 nM.

Q: How did the Ki turn out when `Clc1ccc2c(c1)CNCc1nnc(C3CC=C(c4cccc5ccccc45)CC3)n1-2` (racemic) [Example 15, (RS)-8-Chloro-1-(4-naphthalen-1-yl-cyclohex-3-enyl)-5,6-dihydro-4H-2,3,5,10b-tetraaza-benzo[e]azulene hydrochloride] was run?
A: The Ki was 112 nM.

Q: With `COc1ccc(F)cc1C1=CCC(c2nnc3n2-c2ccc(Cl)cc2CNC3)CC1` (racemic) [Example 18, (RS)-8-Chloro-1-[4-(5-fluoro-2-methoxy-phenyl)-cyclohex-3-enyl]-5,6-dihydro-4H-2,3,5,10b-tetraaza-benzo[e]azulene hydrochloride] as the compound, how does the Ki read?
A: Its Ki is 97.7 nM.

Q: Which Ki does the source give for `COc1ccc(F)cc1C1=CCC(c2nnc3n2-c2ccc(Cl)cc2CN(C(=O)OC(C)(C)C)C3)CC1` (racemic) [Example 17, (RS)-8-Chloro-1-[4-(5-fluoro-2-methoxy-phenyl)-cyclohex-3-enyl]-4H,6H-2,3,5,10b-tetraaza-benzo[e]azulene-5-carboxylic acid tert-butyl ester] here?
A: Its Ki is 20.4 nM.

Q: How did the Ki turn out when `CN1Cc2cc(Cl)ccc2-n2c(nnc2C2CC=C(c3ccccn3)CC2)C1` (single isomer, unassigned; (-)) [Example 23, (−)-8-Chloro-5-methyl-1-(-4-pyridin-2-yl-cyclohex-3-enyl)-5,6-dihydro-4H-2,3,5,10b-tetraaza-benzo[e]azulene] was run?
A: Its Ki is 7.59 nM.

Q: With `Fc1ccc(C2=CCC(c3nnc4n3-c3ccc(Cl)cc3CNC4)CC2)cc1` (racemic) [Example 6, (RS)-8-Chloro-1-[4-(4-fluoro-phenyl)-cyclohex-3-enyl]-5,6-dihydro-4H-2,3,5,10b-tetraaza-benzo[e]azulene hydrochloride] as the compound, how does the Ki read?
A: The Ki was 29.5 nM.

Q: `FC(F)(F)Oc1cccc(C2=CCC(c3nnc4n3-c3ccc(Cl)cc3CNC4)CC2)c1` (racemic) [Example 9, (RS)-8-Chloro-1-[4-(3-trifluoromethoxy-phenyl)-cyclohex-3-enyl]-5,6-dihydro-4H-2,3,5,10b-tetraaza-benzo[e]azulene hydrochloride] was tested. Which Ki did it give?
A: Its Ki is 331 nM.

Q: How did the Ki turn out when `Fc1cccc(C2=CCC(c3nnc4n3-c3ccc(Cl)cc3CNC4)CC2)c1Cl` (racemic) [Example 12, (RS)-8-Chloro-1-[4-(2-chloro-3-fluoro-phenyl)-cyclohex-3-enyl]-5,6-dihydro-4H-2,3,5,10b-tetraaza-benzo[e]azulene hydrochloride] was run?
A: The Ki was 28.8 nM.

Q: Which Ki does the source give for `CN1Cc2cc(Cl)ccc2-n2c(nnc2C2CC=C(c3ccccn3)CC2)C1` (single isomer, unassigned; (+)) [Example 24, (+)-8-Chloro-5-methyl-1-(-4-pyridin-2-yl-cyclohex-3-enyl)-5,6-dihydro-4H-2,3,5,10b-tetraaza-benzo[e]azulene] here?
A: The Ki was 2.88 nM.

Q: How did the Ki turn out when `CC(C)(C)OC(=O)N1Cc2cc(Cl)ccc2-n2c(nnc2C2CC=C(c3ncccc3F)CC2)C1` (single isomer, unassigned; (-)) [Example 28, (−)-8-Chloro-1-[-4-(3-fluoro-pyridin-2-yl)-cyclohex-3-enyl]-4H,6H-2,3,5,10b-tetraaza-benzo[e]azulene-5-carboxylic acid tert-butyl ester] was run?
A: The Ki was 1.91 nM.

Q: For `CN1Cc2cc(Cl)ccc2-n2c(nnc2C2CC=C(c3cccc(F)c3Cl)CC2)C1` (racemic) [Example 13, (RS)-8-Chloro-1-[4-(2-chloro-3-fluoro-phenyl)-cyclohex-3-enyl]-5-methyl-5,6-dihydro-4H-2,3,5,10b-tetraaza-benzo[e]azulene], which Ki is on record?
A: The Ki was 5.75 nM.

Q: For `CN1Cc2cc(Cl)ccc2-n2c(nnc2C2CC=C(c3ccc(F)cc3)CC2)C1` (racemic) [Example 7, (RS)-8-Chloro-1-[4-(4-fluoro-phenyl)-cyclohex-3-enyl]-5-methyl-5,6-dihydro-4H-2,3,5,10b-tetraaza-benzo[e]azulene], which Ki is on record?
A: The Ki was 6.76 nM.

Q: For `CN1Cc2cc(Cl)ccc2-n2c(nnc2C2CC=C(c3ncccc3F)CC2)C1` (single isomer, unassigned; (+)) [Example 33, (+)-8-Chloro-1-[-4-(3-fluoro-pyridin-2-yl)-cyclohex-3-enyl]-5-methyl-5,6-dihydro-4H-2,3,5,10b-tetraaza-benzo[e]azulene], which Ki is on record?
A: Its Ki is 5.13 nM.

Q: How did the Ki turn out when `Fc1cccnc1C1=CCC(c2nnc3n2-c2ccc(Cl)cc2CNC3)CC1` (single isomer, unassigned; (+)) [Example 32, (+)-8-Chloro-1-[-4-(3-fluoro-pyridin-2-yl)-cyclohex-3-enyl]-5,6-dihydro-4H-2,3,5,10b-tetraaza-benzo[e]azulene] was run?
A: The Ki was 38.9 nM.

Q: With `Cc1ccccc1C1=CCC(c2nnc3n2-c2ccc(Cl)cc2CN(C)C3)CC1` (racemic) [Example 4, (RS)-8-Chloro-5-methyl-1-(4-o-tolyl-cyclohex-3-enyl)-5,6-dihydro-4H-2,3,5,10b-tetraaza-benzo[e]azulene] as the compound, how does the Ki read?
A: The Ki was 2.09 nM.

Q: `Cc1ccccc1C1=CCC(c2nnc3n2-c2ccc(Cl)cc2CNC3)CC1` (racemic) [Example 3, (RS)-8-Chloro-1-(4-o-tolyl-cyclohex-3-enyl)-5,6-dihydro-4H-2,3,5,10b-tetraaza-benzo[e]azulene hydrochloride] was tested. Which Ki did it give?
A: The Ki was 5.13 nM.

Q: `Cc1nc(C2=CCC(c3nnc4n3-c3ccc(Cl)cc3CN(C(=O)OC(C)(C)C)C4)CC2)cs1` (racemic) [Example 34, (RS)-8-Chloro-1-[4-(2-methyl-thiazol-4-yl)-cyclohex-3-enyl]-4H,6H-2,3,5,10b-tetraaza-benzo[e]azulene-5-carboxylic acid tert-butyl ester] was tested. Which Ki did it give?
A: Its Ki is 3.72 nM.

Q: With `Fc1cccnc1C1=CCC(c2nnc3n2-c2ccc(Cl)cc2CNC3)CC1` (single isomer, unassigned; (-)) [Example 30, (−)-8-Chloro-1-[-4-(3-fluoro-pyridin-2-yl)-cyclohex-3-enyl]-5,6-dihydro-4H-2,3,5,10b-tetraaza-benzo[e]azulene] as the compound, how does the Ki read?
A: The Ki was 42.7 nM.

Q: With `CC(C)(C)OC(=O)N1Cc2cc(Cl)ccc2-n2c(nnc2C2CC=C(c3cccc(C#N)c3)CC2)C1` (racemic) [Example 20, (RS)-8-Chloro-1-[4-(3-cyano-phenyl)-cyclohex-3-enyl]-4H,6H-2,3,5,10b-tetraaza-benzo[e]azulene-5-carboxylic acid tert-butyl ester] as the compound, how does the Ki read?
A: Its Ki is 46.8 nM.

Q: With `Cc1nc(C2=CCC(c3nnc4n3-c3ccc(Cl)cc3CN(C)C4)CC2)cs1` (racemic) [Example 36, (RS)-8-Chloro-5-methyl-1-[4-(2-methyl-thiazol-4-yl)-cyclohex-3-enyl]-5,6-dihydro-4H-2,3,5,10b-tetraaza-benzo[e]azulene] as the compound, how does the Ki read?
A: The Ki was 13.5 nM.

Same assay, conditions: pKi (hV1a), 3H-Vasopressin displacement, HEK293 cell membranes, SPA beads, 1 h at room temperature, Ki by Cheng-Prussoff from IC50

Q: `CN1Cc2cc(Cl)ccc2-n2c(nnc2C2CC=C(c3ccccc3)CC2)C1` (racemic) [Example 2, (RS)-8-Chloro-5-methyl-1-(4-phenyl-cyclohex-3-enyl)-5,6-dihydro-4H-2,3,5,10b-tetraaza-benzo[e]azulene] was tested. Which Ki did it give?
A: The Ki was 2.69 nM.
